The source of these data is ChEMBL document CHEMBL3991601, “The target landscape of clinical kinase drugs” (Science, 2017).

Among the targets are Insulin receptor (Homo sapiens, UniProt P06213); Ephrin type-A receptor 7 (Homo sapiens, UniProt Q15375); Ephrin type-A receptor 2 (Homo sapiens, UniProt P29317).
Test [1] has as its target Chromodomain-helicase-DNA-binding protein 4 (Homo sapiens, UniProt Q14839).
The target of test [2] is Serine/threonine-protein kinase 26 (Homo sapiens, UniProt Q9P289).
The target in test [3] is T1, NUAK family SNF1-like kinase 2 (Homo sapiens, UniProt Q9H093).
T1 sequence (Q9H093 whole entry): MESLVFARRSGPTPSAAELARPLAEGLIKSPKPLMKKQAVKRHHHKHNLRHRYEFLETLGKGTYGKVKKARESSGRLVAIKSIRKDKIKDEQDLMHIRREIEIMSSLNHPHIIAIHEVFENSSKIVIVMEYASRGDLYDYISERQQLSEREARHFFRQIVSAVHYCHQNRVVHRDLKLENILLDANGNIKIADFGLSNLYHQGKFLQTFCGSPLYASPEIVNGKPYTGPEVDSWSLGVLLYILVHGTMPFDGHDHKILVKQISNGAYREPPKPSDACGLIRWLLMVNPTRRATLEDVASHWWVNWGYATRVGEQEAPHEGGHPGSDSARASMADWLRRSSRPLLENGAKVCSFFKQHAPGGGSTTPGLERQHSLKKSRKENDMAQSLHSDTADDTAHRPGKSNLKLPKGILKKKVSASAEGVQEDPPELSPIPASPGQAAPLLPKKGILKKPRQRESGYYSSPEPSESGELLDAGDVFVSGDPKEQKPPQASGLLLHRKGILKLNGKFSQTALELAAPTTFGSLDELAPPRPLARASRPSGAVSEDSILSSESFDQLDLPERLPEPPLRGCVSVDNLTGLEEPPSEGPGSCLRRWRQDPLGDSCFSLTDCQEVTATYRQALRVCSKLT

For test [4], the target named is T2, RNA cytidine acetyltransferase (Homo sapiens, UniProt Q9H0A0).
T2 sequence (Q9H0A0 whole entry): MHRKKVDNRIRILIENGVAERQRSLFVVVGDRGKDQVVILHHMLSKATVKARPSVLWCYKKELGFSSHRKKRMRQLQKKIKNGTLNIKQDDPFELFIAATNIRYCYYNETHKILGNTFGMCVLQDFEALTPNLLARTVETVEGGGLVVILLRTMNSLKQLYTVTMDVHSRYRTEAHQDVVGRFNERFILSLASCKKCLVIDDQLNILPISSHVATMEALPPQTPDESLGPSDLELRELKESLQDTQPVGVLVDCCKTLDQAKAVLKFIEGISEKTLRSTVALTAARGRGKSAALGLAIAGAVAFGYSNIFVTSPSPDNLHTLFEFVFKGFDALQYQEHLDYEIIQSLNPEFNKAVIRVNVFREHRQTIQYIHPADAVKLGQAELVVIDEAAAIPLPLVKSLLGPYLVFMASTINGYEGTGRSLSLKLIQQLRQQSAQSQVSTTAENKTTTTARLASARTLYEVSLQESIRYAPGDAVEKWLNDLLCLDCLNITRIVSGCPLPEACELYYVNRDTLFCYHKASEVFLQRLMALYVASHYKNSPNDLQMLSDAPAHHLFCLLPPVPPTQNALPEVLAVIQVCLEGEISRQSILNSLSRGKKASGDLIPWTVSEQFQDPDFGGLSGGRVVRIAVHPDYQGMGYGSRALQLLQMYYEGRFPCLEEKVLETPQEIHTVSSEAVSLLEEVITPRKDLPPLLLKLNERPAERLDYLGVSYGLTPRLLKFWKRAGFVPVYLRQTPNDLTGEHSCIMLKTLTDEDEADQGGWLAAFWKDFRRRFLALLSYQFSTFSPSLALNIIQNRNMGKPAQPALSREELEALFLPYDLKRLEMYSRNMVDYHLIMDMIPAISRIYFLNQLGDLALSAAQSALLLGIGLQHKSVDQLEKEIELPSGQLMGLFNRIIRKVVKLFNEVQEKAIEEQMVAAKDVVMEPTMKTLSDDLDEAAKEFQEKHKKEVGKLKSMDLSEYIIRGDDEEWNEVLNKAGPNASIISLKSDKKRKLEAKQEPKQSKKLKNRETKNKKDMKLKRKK

Test [5] deals with T3, Serine/threonine-protein kinase TAO1 (Homo sapiens, UniProt Q7L7X3).
T3 sequence (Q7L7X3 whole entry): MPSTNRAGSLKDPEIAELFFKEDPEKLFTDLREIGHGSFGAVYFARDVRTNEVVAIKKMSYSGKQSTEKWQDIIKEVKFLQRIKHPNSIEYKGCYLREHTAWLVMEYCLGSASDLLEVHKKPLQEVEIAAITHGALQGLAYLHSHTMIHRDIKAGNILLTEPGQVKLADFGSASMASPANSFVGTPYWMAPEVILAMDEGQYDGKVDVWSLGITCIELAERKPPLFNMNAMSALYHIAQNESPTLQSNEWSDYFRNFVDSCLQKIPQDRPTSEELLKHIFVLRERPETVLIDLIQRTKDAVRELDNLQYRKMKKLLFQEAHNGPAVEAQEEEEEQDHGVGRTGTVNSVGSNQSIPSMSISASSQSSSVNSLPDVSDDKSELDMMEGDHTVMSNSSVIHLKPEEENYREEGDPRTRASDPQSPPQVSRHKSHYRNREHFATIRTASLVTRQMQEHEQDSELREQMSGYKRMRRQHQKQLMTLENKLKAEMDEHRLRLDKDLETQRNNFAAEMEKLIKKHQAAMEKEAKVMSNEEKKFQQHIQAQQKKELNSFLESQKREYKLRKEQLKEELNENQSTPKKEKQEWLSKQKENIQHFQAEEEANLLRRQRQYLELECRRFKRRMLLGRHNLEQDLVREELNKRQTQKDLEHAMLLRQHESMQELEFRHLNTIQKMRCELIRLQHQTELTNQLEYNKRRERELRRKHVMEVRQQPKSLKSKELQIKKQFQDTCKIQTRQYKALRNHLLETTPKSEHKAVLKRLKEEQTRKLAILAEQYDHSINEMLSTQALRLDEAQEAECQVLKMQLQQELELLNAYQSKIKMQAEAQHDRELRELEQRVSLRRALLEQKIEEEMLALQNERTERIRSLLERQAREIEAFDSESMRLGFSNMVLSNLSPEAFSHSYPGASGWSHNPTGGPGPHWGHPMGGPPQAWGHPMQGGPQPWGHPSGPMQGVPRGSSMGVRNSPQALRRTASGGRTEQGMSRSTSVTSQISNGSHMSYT

In test [6] the target is Dual specificity mitogen-activated protein kinase kinase 2 (Homo sapiens, UniProt P36507).
In test [7] the target is MAP/microtubule affinity-regulating kinase 3 (Homo sapiens, UniProt P27448).

Broadly, the Kd is the free concentration of one partner at which half of the binding sites on the other are occupied at equilibrium, for simple one-to-one binding.

The source made the active and inactive calls. For most assays here, no stated cut-off is given here; in the data, actives have a measured Kd and inactives only a lower limit. Bounds are passed on as bounds.

Sequence of Chromodomain-helicase-DNA-binding protein 4 (Q14839 whole entry): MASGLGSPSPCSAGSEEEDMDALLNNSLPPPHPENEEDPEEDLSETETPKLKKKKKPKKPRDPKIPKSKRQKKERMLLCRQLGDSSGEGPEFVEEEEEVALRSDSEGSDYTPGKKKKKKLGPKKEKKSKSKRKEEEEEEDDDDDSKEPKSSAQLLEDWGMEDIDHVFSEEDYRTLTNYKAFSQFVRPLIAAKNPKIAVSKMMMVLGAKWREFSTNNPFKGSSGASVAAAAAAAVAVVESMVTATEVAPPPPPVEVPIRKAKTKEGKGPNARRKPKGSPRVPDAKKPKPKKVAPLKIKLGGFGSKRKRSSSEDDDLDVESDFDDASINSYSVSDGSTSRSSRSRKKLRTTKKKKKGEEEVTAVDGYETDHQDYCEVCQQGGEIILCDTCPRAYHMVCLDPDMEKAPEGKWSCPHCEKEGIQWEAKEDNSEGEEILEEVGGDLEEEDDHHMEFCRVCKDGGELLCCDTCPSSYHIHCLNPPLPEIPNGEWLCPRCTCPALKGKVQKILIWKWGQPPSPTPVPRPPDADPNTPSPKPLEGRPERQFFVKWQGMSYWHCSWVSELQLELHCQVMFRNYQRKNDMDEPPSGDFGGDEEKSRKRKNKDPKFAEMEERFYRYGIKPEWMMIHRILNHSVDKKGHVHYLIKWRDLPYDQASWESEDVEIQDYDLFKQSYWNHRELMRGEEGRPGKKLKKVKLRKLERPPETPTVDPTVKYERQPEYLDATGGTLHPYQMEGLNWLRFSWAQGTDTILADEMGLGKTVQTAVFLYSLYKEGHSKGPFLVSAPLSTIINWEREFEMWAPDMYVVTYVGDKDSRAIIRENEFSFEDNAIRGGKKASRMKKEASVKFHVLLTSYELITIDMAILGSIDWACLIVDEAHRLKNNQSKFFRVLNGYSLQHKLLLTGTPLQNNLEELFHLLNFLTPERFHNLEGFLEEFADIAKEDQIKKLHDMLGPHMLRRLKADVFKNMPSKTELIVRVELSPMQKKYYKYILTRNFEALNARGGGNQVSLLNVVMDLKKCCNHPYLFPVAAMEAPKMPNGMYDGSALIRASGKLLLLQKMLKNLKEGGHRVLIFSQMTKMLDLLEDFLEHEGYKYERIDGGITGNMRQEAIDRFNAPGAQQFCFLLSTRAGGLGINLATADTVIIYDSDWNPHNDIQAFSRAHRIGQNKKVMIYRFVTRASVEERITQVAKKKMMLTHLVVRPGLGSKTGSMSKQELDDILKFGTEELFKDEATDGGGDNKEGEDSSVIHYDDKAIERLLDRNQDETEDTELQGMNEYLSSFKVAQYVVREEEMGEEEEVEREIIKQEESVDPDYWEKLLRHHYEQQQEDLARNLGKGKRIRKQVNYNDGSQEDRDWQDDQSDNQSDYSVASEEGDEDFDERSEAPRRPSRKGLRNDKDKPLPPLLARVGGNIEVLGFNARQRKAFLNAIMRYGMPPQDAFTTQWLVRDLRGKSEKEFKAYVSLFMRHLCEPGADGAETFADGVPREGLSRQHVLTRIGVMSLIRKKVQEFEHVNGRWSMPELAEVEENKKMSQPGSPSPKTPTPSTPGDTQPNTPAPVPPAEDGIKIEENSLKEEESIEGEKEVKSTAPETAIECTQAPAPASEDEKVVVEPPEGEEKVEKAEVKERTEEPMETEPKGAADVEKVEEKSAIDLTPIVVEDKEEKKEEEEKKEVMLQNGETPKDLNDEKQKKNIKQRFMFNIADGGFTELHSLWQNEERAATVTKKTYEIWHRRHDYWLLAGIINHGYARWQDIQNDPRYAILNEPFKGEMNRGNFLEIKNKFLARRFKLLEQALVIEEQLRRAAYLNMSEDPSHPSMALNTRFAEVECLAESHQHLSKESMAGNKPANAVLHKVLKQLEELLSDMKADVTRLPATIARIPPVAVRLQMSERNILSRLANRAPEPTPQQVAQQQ
Sequence of Insulin receptor (P06213 28-758 limits assumed): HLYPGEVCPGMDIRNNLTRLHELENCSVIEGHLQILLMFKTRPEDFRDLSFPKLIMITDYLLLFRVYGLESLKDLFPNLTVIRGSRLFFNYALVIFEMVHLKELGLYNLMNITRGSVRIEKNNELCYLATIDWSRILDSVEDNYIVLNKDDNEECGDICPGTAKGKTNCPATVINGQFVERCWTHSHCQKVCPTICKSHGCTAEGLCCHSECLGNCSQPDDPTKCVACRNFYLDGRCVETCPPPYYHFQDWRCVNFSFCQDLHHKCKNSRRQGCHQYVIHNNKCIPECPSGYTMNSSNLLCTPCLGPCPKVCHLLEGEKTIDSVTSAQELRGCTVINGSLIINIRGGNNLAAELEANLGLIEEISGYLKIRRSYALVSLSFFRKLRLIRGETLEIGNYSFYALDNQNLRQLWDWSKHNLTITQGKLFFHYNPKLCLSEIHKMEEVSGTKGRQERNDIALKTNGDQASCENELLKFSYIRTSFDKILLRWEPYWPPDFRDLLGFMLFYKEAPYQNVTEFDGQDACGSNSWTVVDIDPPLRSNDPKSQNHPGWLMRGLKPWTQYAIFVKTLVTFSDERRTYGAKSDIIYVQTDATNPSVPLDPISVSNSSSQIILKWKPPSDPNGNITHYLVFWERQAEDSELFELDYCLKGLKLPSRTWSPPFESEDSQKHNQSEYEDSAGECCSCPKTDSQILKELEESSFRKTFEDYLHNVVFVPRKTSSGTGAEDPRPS
Sequence of Insulin receptor (P06213 763-1382 limits assumed): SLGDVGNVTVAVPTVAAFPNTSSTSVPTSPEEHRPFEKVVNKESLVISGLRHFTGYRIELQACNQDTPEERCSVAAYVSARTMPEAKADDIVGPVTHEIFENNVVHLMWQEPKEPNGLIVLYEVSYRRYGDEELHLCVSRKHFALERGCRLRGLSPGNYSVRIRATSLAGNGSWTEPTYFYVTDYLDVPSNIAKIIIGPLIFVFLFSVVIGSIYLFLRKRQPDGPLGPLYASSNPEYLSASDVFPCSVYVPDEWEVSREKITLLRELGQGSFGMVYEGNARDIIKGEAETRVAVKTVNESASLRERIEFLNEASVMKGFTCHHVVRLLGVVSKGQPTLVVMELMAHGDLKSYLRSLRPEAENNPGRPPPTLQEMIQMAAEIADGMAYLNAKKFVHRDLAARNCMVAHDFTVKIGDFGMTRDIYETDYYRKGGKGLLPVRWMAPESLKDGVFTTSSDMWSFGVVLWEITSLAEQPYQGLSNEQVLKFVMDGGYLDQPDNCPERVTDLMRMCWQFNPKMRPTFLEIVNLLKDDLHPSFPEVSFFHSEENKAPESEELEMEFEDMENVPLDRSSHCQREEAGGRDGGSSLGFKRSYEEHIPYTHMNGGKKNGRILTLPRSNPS
Sequence of Dual specificity mitogen-activated protein kinase kinase 2 (P36507 whole entry): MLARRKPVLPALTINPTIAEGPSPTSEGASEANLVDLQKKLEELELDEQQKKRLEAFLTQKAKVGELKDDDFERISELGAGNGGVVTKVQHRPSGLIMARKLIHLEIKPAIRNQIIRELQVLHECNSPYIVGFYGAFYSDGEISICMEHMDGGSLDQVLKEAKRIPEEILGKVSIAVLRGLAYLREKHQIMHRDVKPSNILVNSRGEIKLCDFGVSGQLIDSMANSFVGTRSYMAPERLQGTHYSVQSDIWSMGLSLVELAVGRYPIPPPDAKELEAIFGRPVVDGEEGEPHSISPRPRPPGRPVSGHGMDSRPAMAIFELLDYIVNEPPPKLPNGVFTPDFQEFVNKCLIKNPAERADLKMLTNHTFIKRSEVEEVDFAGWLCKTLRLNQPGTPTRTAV
Sequence of MAP/microtubule affinity-regulating kinase 3 (P27448 whole entry): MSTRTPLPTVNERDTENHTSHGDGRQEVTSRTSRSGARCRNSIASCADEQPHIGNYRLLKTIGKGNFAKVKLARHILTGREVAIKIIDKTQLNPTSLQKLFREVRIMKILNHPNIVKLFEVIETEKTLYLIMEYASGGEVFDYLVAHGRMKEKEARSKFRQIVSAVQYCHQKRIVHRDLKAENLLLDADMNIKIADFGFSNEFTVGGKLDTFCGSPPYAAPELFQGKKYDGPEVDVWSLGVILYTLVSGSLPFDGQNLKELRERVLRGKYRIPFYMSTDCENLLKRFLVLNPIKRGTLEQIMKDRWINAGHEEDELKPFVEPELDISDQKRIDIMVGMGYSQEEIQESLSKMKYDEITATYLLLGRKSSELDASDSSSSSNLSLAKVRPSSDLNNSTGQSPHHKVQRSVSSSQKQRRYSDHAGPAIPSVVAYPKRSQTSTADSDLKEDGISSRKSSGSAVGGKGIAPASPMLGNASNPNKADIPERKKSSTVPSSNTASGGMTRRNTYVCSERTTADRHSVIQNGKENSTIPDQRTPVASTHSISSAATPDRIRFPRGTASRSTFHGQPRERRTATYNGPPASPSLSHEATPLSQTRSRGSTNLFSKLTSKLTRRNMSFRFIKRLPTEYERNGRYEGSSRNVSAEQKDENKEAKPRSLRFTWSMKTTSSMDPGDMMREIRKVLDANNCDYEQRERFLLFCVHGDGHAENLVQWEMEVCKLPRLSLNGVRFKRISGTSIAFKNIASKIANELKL
Sequence of Serine/threonine-protein kinase 26 (Q9P289 whole entry): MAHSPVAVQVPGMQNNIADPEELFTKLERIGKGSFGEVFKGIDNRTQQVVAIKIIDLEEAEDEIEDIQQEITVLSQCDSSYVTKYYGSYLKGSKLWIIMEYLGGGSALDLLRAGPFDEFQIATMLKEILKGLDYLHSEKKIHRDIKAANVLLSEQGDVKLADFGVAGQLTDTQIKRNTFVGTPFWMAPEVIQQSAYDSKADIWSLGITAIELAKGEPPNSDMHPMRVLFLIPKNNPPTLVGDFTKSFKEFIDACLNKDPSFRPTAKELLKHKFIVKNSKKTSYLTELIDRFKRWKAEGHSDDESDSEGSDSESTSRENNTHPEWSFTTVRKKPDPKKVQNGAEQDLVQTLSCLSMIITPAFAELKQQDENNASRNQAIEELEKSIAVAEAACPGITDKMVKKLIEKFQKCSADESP

Regarding `CCCCCCCCCCCCCCCCCCOP(=O)([O-])OC1CC[N+](C)(C)CC1` [PERIFOSINE], the Kd (in test [1]; in test [2]; in test [3]; in [4]; on Insulin receptor; at Ephrin type-A receptor 7) was > 30 µM (inactive) in each case. Further, the Kd (in test [5]; in [6]; at Ephrin type-A receptor 2; in [7]) was > 30 µM (inactive) each time.
`Cc1nc(Nc2n[nH]c3c2CN(C(=O)N[C@H](CN(C)C)c2ccccc2)C3(C)C)c2sccc2n1` [PF-03758309]: the Kd in test [1] is > 30 µM (inactive); in test [2], 0.017 µM; in [3] it was > 30 µM (inactive); in test [4], > 30 µM (inactive); on Insulin receptor, > 30 µM (inactive); at Ephrin type-A receptor 7 it was > 30 µM (inactive). Further, the Kd in test [5] was > 30 µM (inactive); in test [6], > 30 µM (inactive); on Ephrin type-A receptor 2, > 30 µM (inactive); in test [7], 0.105 µM (active).
Turning to `Cc1cnc(NC(=O)Nc2cc(Br)c(C)cc2OC[C@@H]2CNCCO2)cn1` [RABUSERTIB], the Kd (in [1]; in [2]; in test [3]; in [4]; at Insulin receptor; on Ephrin type-A receptor 7) was > 30 µM (inactive) each time. Also, the Kd (in test [5]; in test [6]; at Ephrin type-A receptor 2; in test [7]) was > 30 µM (inactive) each time.
As to `N#CC1(c2ccc(NC(=O)c3cccnc3NCc3ccncc3)cc2)CCCC1` [RIVOCERANIB], the Kd (in [1]; in test [2]; in test [3]; in [4]; at Insulin receptor; on Ephrin type-A receptor 7) was > 30 µM (inactive) in each case. Also, the Kd (in test [5]; in [6]; on Ephrin type-A receptor 2; in test [7]) was > 30 µM (inactive) throughout.
In the case of `O=c1[nH]ccc2cc(OC3CCNCC3)ccc12` [SAR-407899 FREE BASE], the Kd (in test [1]; in test [2]; in test [3]; in test [4]; at Insulin receptor; on Ephrin type-A receptor 7) was > 30 µM (inactive) each time. For the same compound, the Kd (in test [5]; in test [6]; at Ephrin type-A receptor 2; in [7]) was > 30 µM (inactive) each time.
For the compound `CN1CCN(CCOc2cc(OC3CCOCC3)c3c(Nc4c(Cl)ccc5c4OCO5)ncnc3c2)CC1` [SARACATINIB], the Kd (in test [1]; in test [2]; in [3]; in [4]; on Insulin receptor; on Ephrin type-A receptor 7) was > 30 µM (inactive) each time. Further, the Kd in test [5] is > 30 µM (inactive); in [6], > 30 µM (inactive); on Ephrin type-A receptor 2 it was 0.729 µM (active); in [7] it was > 30 µM (inactive).
For `Cn1cc(-c2cnn3c(N)c(Br)c([C@@H]4CCCNC4)nc23)cn1` [SCH-900776], the Kd (in test [1]; in [2]; in test [3]; in test [4]; on Insulin receptor; on Ephrin type-A receptor 7) was > 30 µM (inactive) each time. Also, the Kd in [5] was > 30 µM (inactive); in test [6], 2.36 µM (active); on Ephrin type-A receptor 2, > 30 µM (inactive); in [7], 1.93 µM (active).
As for `CO[C@H]1C[C@@H]2CC[C@@H](C)[C@@](O)(O2)C(=O)C(=O)N2CCCC[C@H]2C(=O)O[C@H]([C@H](C)C[C@@H]2CC[C@@H](OC(=O)C(C)(CO)CO)[C@H](OC)C2)CC(=O)[C@H](C)/C=C(\C)[C@@H](O)[C@@H](OC)C(=O)[C@H](C)C[C@H](C)/C=C/C=C/C=C/1C` [TEMSIROLIMUS], the Kd (in test [1]; in test [2]; in test [3]; in test [4]; on Insulin receptor; on Ephrin type-A receptor 7) was > 30 µM (inactive) each time. In addition, the Kd (in test [5]; in test [6]; at Ephrin type-A receptor 2; in test [7]) was > 30 µM (inactive) in each case.
As to `COc1cc2c(Nc3ccc(Cl)c(Cl)c3F)ncnc2cc1OC[C@@H]1C[C@@H]2CN(C)C[C@@H]2C1` [TESEVATINIB], the Kd in [1] is > 30 µM (inactive); in test [2], > 30 µM (inactive); in test [3] it was > 30 µM (inactive); in test [4], > 30 µM (inactive); at Insulin receptor, > 30 µM (inactive); at Ephrin type-A receptor 7 it was 0.022 µM. For the same compound, the Kd was > 30 µM (inactive) in [5], > 30 µM (inactive) in test [6], 0.501 µM (active) on Ephrin type-A receptor 2 and > 30 µM (inactive) in test [7].
In the case of `O=C(Cc1ccc(-c2ccc(OCCN3CCOCC3)cc2)cn1)NCc1ccccc1` [TIRBANIBULIN], the Kd (in [1]; in test [2]; in [3]; in test [4]; on Insulin receptor; on Ephrin type-A receptor 7) was > 30 µM (inactive) each time. The Kd (in test [5]; in test [6]; on Ephrin type-A receptor 2; in test [7]) was > 30 µM (inactive) in each case.
